Values quoted from earlier work, collected in US20130224268A1, “TOPICAL DELIVERY OF HORMONAL AND NON HORMONAL NANO FORMULATIONS, METHODS OF MAKING AND USING THE SAME” (NEWGEN BIOPHARMA CORP., priority 2012, published 2013).

System: hydroxyproline, a major constituent amino acid in collagen
Settings: topical estradiol treatment

Structure (SMILES): C[C@]12CC[C@@H]3c4ccc(O)cc4CC[C@H]3[C@@H]1CC[C@@H]2O [estradiol, (17β)-estra-1,3,5(10)-triene-3,17-diol]
- increase in hydroxyproline: 38%
